Among the data in PubChem BioAssay (NCI) are GI50 and TGI values, retold here.

Structures are written as SMILES. Several values for one entry are separate records, joined by “and”; a condition that tells them apart may be missing. Equal entries are not always repeated.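 These data come from cells grown in 96-well plates and exposed to compound for 48 hours at five concentrations. GI50 = concentration required for 50% inhibition of growth. TGI marks complete inhibition of growth.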 Bounds are passed on as bounds.

Some test systems named below: SF-268 CNS; MCF7 breast; NCI-H460 lung; RPMI-8226 leukemia; SNB-75 CNS; K-562 leukemia; SK-MEL-28 melanoma; KM12 colon; TK-10 renal; HOP-62 NSCLC.
What all share (assay): NCI-60 cell line screen, 48 h

Regarding `C=C1C(=O)O[C@H]2[C@H]1CC/C(COC(=O)/C=C/c1c[nH]c3ccccc13)=C\CC[C@@]1(C)O[C@@H]21`, the GI50 with SF-268 CNS was 0.229 µM; in the experiment on MCF7 breast, 0.226 µM; in the experiment on NCI-H460 lung it was 1.01 µM; in the experiment with RPMI-8226 leukemia it was 0.0332 µM; in the experiment with SNB-75 CNS, 0.17 µM; with K-562 leukemia, 0.273 µM. The GI50 in the experiment on SK-MEL-28 melanoma is 0.332 µM; in the experiment on KM12 colon, 0.402 µM; with TK-10 renal, 0.279 µM; with HOP-62 NSCLC, 0.829 µM. For the same compound, the TGI with SF-268 CNS is 0.569 µM; in the experiment on MCF7 breast, 1.01 µM; in the experiment on NCI-H460 lung, 2.66 µM; in the experiment on RPMI-8226 leukemia, 0.123 µM; in the experiment on SNB-75 CNS, 0.428 µM; in the experiment with K-562 leukemia it was more than 100 µM. Also, the TGI was found to be 1.3 µM in the experiment on SK-MEL-28 melanoma, 1.64 µM in the experiment with KM12 colon, 0.709 µM in the experiment on TK-10 renal and 2.16 µM in the experiment with HOP-62 NSCLC.

On to `Cc1c(N)nc(C(CC(N)=O)NCC(N)C(N)=O)nc1C(=O)NC(C(=O)NC(C)C(O)C(C)C(=O)NC(C(=O)NCCc1nc(-c2nc(C(=O)NCCCNCCCCN)cs2)cs1)C(C)O)C(OC1OC(CO)C(O)C(O)C1OC1OC(CO)C(O)C(OC(N)=O)C1O)c1cnc[nH]1` (configuration not stated), for which the GI50 in the experiment with SF-268 CNS is 2.55 µg/mL and 0.324 µg/mL; with MCF7 breast it was 3.08 µg/mL; with NCI-H460 lung, 0.199 µg/mL and 0.171 µg/mL; in the experiment on RPMI-8226 leukemia it was 13.3 µg/mL; in the experiment on SNB-75 CNS, 8.83 µg/mL and 3.08 µg/mL; in the experiment with K-562 leukemia, 29.2 µg/mL. The GI50 with SK-MEL-28 melanoma is 48 µg/mL; in the experiment with KM12 colon, 40 µg/mL; in the experiment with TK-10 renal it was 19.4 µg/mL; with HOP-62 NSCLC, 0.137 µg/mL. Moreover, the TGI was 23.8 µg/mL and > 10 µM in the experiment with SF-268 CNS; more than 10 µM in the experiment on NCI-H460 lung; more than 10 µM in the experiment with RPMI-8226 leukemia; more than 10 µM in the experiment on K-562 leukemia; more than 10 µM in the experiment on SK-MEL-28 melanoma; more than 10 µM in the experiment with KM12 colon. Also, the TGI in the experiment with TK-10 renal was more than 10 µM.

For the compound `O=C(O)c1cc2c(c3ccsc13)-c1ccccc1CC2`, the GI50 was 44 µM in the experiment on SF-268 CNS; 42 µM in the experiment with MCF7 breast; 33.2 µM with NCI-H460 lung; 43.4 µM in the experiment with RPMI-8226 leukemia; 86.2 µM in the experiment on SNB-75 CNS; 40.6 µM with K-562 leukemia. In addition, the GI50 in the experiment on SK-MEL-28 melanoma is 85.5 µM; in the experiment with KM12 colon, 34.3 µM; with TK-10 renal, 30.3 µM; with HOP-62 NSCLC, 31.8 µM. The TGI in the experiment on SF-268 CNS, in the experiment with MCF7 breast, with NCI-H460 lung, in the experiment with RPMI-8226 leukemia, in the experiment on SNB-75 CNS and in the experiment on K-562 leukemia was more than 100 µM throughout. Besides, the TGI in the experiment with SK-MEL-28 melanoma is more than 100 µM; with KM12 colon it was more than 100 µM; in the experiment on TK-10 renal, 98.9 µM; in the experiment with HOP-62 NSCLC, more than 100 µM.

In the case of `O=C(Nc1cccc([N+](=O)[O-])c1)c1cc2ccccc2cc1O`, the GI50 in the experiment on SF-268 CNS was 2.98 µM; in the experiment with MCF7 breast, 1.36 µM; in the experiment with NCI-H460 lung, 1.87 µM; in the experiment on RPMI-8226 leukemia it was 0.146 µM; with SNB-75 CNS, 2.84 µM; in the experiment on K-562 leukemia, 0.845 µM. Also, the GI50 in the experiment with SK-MEL-28 melanoma was 3.23 µM; in the experiment with KM12 colon, 2.41 µM; in the experiment with TK-10 renal it was 4.03 µM; with HOP-62 NSCLC, 1.19 µM. The TGI was more than 100 µM with SF-268 CNS; 6.21 µM in the experiment on MCF7 breast; more than 100 µM in the experiment with NCI-H460 lung; 1.06 µM in the experiment on RPMI-8226 leukemia; 55.2 µM in the experiment with SNB-75 CNS; 11 µM in the experiment on K-562 leukemia. Further, the TGI in the experiment with SK-MEL-28 melanoma was more than 100 µM; with KM12 colon it was 6.44 µM; with TK-10 renal, 9.46 µM; in the experiment on HOP-62 NSCLC, 3.72 µM.

Take `CN(C)c1ccc(N=C(C#N)c2nc(N)nc(N3CCN(c4ccccc4)CC3)n2)cc1`: the GI50 in the experiment with SF-268 CNS was 11.7 µM; in the experiment with MCF7 breast it was 21 µM; with NCI-H460 lung, 14.7 µM; with RPMI-8226 leukemia it was more than 26.8 µM; in the experiment with SNB-75 CNS, 6.9 µM; in the experiment on K-562 leukemia, more than 50 µM. Besides, the GI50 is 12.7 µM with SK-MEL-28 melanoma, 49.6 µM in the experiment with KM12 colon, more than 30.6 µM in the experiment on TK-10 renal and more than 28.6 µM in the experiment on HOP-62 NSCLC. Besides, the TGI in the experiment with SF-268 CNS was 34.9 µM; in the experiment with MCF7 breast, 37.4 µM; in the experiment with NCI-H460 lung, more than 37 µM; with RPMI-8226 leukemia it was more than 50 µM; with SNB-75 CNS it was 25.6 µM; in the experiment with K-562 leukemia it was more than 50 µM. Also, the TGI with SK-MEL-28 melanoma, with KM12 colon, in the experiment with TK-10 renal and in the experiment with HOP-62 NSCLC was more than 50 µM each time.

As to `C#CCOc1cccc(Nc2ncc3ncn(C4CCN(C(=O)CCl)C4)c3n2)c1` (configuration not stated), the GI50 in the experiment on SF-268 CNS was more than 62.5 µM; with MCF7 breast, 59.2 µM; in the experiment with NCI-H460 lung, more than 62.5 µM; in the experiment with RPMI-8226 leukemia, more than 62.5 µM; in the experiment with SNB-75 CNS, more than 62.5 µM; in the experiment with K-562 leukemia it was 17.9 µM. Also, the GI50 in the experiment with SK-MEL-28 melanoma, with KM12 colon, in the experiment on TK-10 renal and with HOP-62 NSCLC was more than 62.5 µM each time. In addition, the TGI in the experiment on SF-268 CNS, in the experiment on MCF7 breast, in the experiment on NCI-H460 lung, in the experiment with RPMI-8226 leukemia, with SNB-75 CNS and in the experiment on K-562 leukemia was more than 62.5 µM each time. Besides, the TGI in the experiment on SK-MEL-28 melanoma, in the experiment with KM12 colon, with TK-10 renal and in the experiment on HOP-62 NSCLC was more than 62.5 µM each time.

In the case of `N#Cc1ncc(N2C(=O)C3(CCC3)N(c3ccc(OC4CCNCC4)nc3)C2=S)cc1C(F)(F)F`, the GI50 with SF-268 CNS was 18.6 µM; in the experiment with MCF7 breast, 11.5 µM; with NCI-H460 lung, 16.8 µM; in the experiment with RPMI-8226 leukemia, 11.5 µM; in the experiment with SNB-75 CNS, 15.4 µM; in the experiment with K-562 leukemia, 5.84 µM. The GI50 was 13.8 µM with SK-MEL-28 melanoma, 18.5 µM in the experiment on KM12 colon, 17.9 µM with TK-10 renal and 25.2 µM in the experiment on HOP-62 NSCLC. Also, the TGI in the experiment with SF-268 CNS was 43.2 µM; with MCF7 breast it was 26.4 µM; in the experiment with NCI-H460 lung it was 31.7 µM; in the experiment with RPMI-8226 leukemia, 32 µM; in the experiment with SNB-75 CNS, 50.1 µM; in the experiment with K-562 leukemia it was 34.4 µM. The TGI in the experiment on SK-MEL-28 melanoma worked out at 27.4 µM; in the experiment on KM12 colon, 37 µM; in the experiment with TK-10 renal, 39.1 µM; in the experiment with HOP-62 NSCLC it was 67.4 µM.
